Laboratory results from USRE43688E1 (The Regents of the University of California, priority 2006, dated 2012).
Where “and” joins values, the source holds several entries; their conditions need not be identical. Equal entries are not always repeated.

Experiments:
[1] = Blood analysis of the monkey PET study (plasma parent and metabolites); format: in vivo, Rhesus monkey
Description: A blood analysis of the monkey PET study subsequent to administration of ^18F-mefway was performed to observe levels of breakdown in the blood similar to methods described for ^18F-fallypride. Venous whole blood (approx. 1 mL) was obtained at various time-points (5, 10, 15, 30, 45, 60, 90, 120, 150 and 180 min) during the course of the PET study. The samples were centrifuged in a Microfuge centrifuge (Eppendorf Centrifuge 5415C) at 12,000 rpm for 5 min. Plasma, 0.6 mL was separated from each sample and 0.1 mL was counted from each sample. […]. The remaining 0.5 mL of plasma at each time point was combined with 0.1 mL NaHCO3 and mixed well and subsequently extracted with 0.4 mL of ethyl acetate. The ethyl acetate was separated and 0.1 mL of ethyl acetate layer and 0.1 mL of aqueous layer were counted for analysis of ^18F-mefway in blood. […] The developed TLC plate was dried, apposed overnight to phosphor screen, and were read using the Phosphor Cyclone Imager (Packard Instruments Co., Boston Mass.). The amount of ^18F-mefway was evaluated in digital light units (DLU/mm^2) using Opti-Quant acquisition and analysis program (Packard Instruments Co.). All blood samples were counted for radioactivity in a Packard Gamma Counter 5000 series.

[2] = Defluorination of ^18F-mefway in in vitro and in vivo experiments; settings: numerous in vitro and in vivo experiments
[3] = Lipophilicity (log P) by partitioning between n-octanol and Tris-HCl buffer; format: physicochemical; settings: n-octanol and 50 M Tris-HCl (pH 7.4) buffer
Description: Lipophilicity (log P) was measured to evaluate lipid solubility of ^18F-mefway. The lipophilicity was measured by partitioning between n-octanol and […] Tris-HCl (pH 7.4) buffer. Into three tubes 2 mL of n-octanol and 2 mL of buffer were added and vortexed. To this mixture 370 kBq of ^18F-mefway was added. The mixture was again vortexed and allowed to settle. The layers were separated and the aqueous layer was centrifuged again to remove n-octanol contamination. An aliquot of both layers was counted for concentration of ^18F-mefway using the Cobra Quantum well counter (Packard Instruments Co., Boston, Mass.). Log P was taken as the concentration of ^18F-mefway in n-octanol over concentration of buffer.

[4] = molecular target: T1, 5-HT1A receptors (Macaca mulatta, UniProt F7GIU0); test: Monkey PET study with ^18F-mefway; format: in vivo, Rhesus monkey
T1 construct: from tissue; host or cells: brain of a living anaesthetised Rhesus monkey (PET)
T1 sequence (F7GIU0 1-421): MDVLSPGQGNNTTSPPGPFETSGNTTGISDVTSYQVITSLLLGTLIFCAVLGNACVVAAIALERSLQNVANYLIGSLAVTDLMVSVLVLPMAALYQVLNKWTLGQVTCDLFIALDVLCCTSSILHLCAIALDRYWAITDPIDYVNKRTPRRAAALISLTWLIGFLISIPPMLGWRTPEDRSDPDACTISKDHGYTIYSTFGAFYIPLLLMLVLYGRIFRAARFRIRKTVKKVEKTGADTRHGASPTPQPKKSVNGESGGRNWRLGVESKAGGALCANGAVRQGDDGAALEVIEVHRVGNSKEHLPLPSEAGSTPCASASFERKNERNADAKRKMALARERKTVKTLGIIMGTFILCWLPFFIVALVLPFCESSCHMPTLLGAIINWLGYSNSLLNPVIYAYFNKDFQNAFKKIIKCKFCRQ
Description: In vivo studies were performed in a Rhesus monkey. The monkey was anesthetized using ketamine (10 mg/kg) and xylazine (0.5 mg/kg) and maintained on 1-1.5% isoflurane. Two intravenous catheters were placed, one on each arm, for administration of the radiopharmaceutical and for obtaining blood samples during the study. Vital signs of the money were monitored carefully. […] The head of the animal was placed in the gantry of an ECAT EXACT HR+PET scanner and positioned in place with the use of adhesive tape. A transmission scan using a Ge-68/Ga-68 rod source was acquired prior to administration of the radiopharmaceutical to correct for tissue attenuation of the coincident radiation. A dynamic sequence of scans was acquired for 180 minutes after administration of 130 MBq of ^18F-Mefway intravenously (specific activity=74-111 GBq/μmol). Data in the final form were expressed in units of percent-injected dose/mL or kBq/mL. Areas showing maximal radioligand binding in the frontal cortex, temporal cortex, dorsal raphe and other braain regions were delineated in the images. The PET images were coregistered with an MRI image template of the rhesus monkey in order to provide anatomical detail as reported previously. This MRI template of the rhesus (Macaca mulatta) brain is an average of 6 monkeys with T1-weighted MR scans. PET image summed till 120 min duration was used for the coregistration. Coregistration of the PET-MR data was carried out by VINCI program (CPS Innovations, Inc.). Time activity curves were obtained for all of these regions.

[5] = molecular target: T2, 5HT1A receptor (Rattus norvegicus, UniProt P19327); test: Competitive binding assay in rat brain slices using ^18F-mefway as the radioligand (autoradiography); settings: 167 kBq/mL ^18F-mefway, 37° C. 1 hour, measured autoradiographically in the hippocampus (FIG. 5), read-out: Binding affinity (IC50) against ^18F-mefway
T2 construct: from tissue; host or cells: 10 um horizontal brain slices of Sprague-Dawley rats
T2 sequence (P19327 1-422): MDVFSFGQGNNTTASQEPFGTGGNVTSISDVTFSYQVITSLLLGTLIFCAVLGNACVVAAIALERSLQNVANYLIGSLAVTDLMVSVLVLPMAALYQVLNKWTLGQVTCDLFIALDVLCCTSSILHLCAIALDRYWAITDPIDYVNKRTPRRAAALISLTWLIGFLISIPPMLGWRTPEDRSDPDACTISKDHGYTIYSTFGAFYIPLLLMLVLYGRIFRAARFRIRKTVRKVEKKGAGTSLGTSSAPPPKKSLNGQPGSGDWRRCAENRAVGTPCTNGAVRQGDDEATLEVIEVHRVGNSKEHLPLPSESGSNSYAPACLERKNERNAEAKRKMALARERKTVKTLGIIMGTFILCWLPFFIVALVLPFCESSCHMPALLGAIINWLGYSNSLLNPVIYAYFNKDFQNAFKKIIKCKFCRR
Description: In vitro binding affinity of mefway was measured in rat brain slices labeled with fluorine-18. The brains from Sprague-Dawley rats were extracted and frozen in isopentane at −20° C. Several 10 μm thick horizontal rat brain slices were pre-incubated at room temperature for 15 minutes in 50 mM Tris-HCl buffer (pH 7.4). […] After incubation slides were washed twice with cold buffer for one minute, dipped in cold water, air dried, and exposed to phosphor storage screens for 24 hours. Autoradiographs were generated using the Packard Phosphor Cyclone Imager, and the apposed phosphor screens were read by the Cyclone Storage Phosphor System. […] Binding affinity (IC50) was calculated using KELL program (BioSoft Inc).

[6] = molecular target: T2, 5HT1A receptor; test: Competition study of serotonin with ^18F-mefway in rat brain slices; format: binding
Description: Male Sprague-Dawley rats (200-250 g) were anesthetized and decapitated, the brain was rapidly removed and frozen in isopentane at −20° C. Horizontal slices were cut 10 μm thick using a Leica 1850 cryotome. Slices contained the regions of cortex, hippocampus, and other regions known to contain 5-HT1A receptors. Brain slices were stored at −20° C. Brain slices were preincubated in 50 mM Tris-HCl buffer (pH 7.4) for 10 mins. The slices were then incubated with 130-148 kBq/mL of ^18F-mefway at 37° C. for 1 hr. […] After incubation, slides were washed twice (one minute for both washes) with ice-cold buffer. Slides were then quickly dipped in cold deionized water, air dried, and exposed to a phosphor screen for 24 hours. The autoradiographs were generated using the Phosphor Cyclone Imager (Packard Instruments Co., Boston Mass.). The amount of binding was evaluated in digital light units (DLU/mm^2) using OptiQuant accusation and analysis program (Packard Instruments Co.) Autoradiographs were quantified using a computer-based image analysis system (OptiQuant Version 4.0 Packard Instruments Co., Boston Mass.).

[7] = molecular target: T3, 5HT1a receptor (Mus musculus, UniProt Q64264); test: trans-^18F-mefway binding in transgenic mouse models of Alzheimer's disease; settings: transgenic mouse models of Alzheimer's disease (data not shown)
T3 construct: from tissue
T3 sequence (Q64264 1-421): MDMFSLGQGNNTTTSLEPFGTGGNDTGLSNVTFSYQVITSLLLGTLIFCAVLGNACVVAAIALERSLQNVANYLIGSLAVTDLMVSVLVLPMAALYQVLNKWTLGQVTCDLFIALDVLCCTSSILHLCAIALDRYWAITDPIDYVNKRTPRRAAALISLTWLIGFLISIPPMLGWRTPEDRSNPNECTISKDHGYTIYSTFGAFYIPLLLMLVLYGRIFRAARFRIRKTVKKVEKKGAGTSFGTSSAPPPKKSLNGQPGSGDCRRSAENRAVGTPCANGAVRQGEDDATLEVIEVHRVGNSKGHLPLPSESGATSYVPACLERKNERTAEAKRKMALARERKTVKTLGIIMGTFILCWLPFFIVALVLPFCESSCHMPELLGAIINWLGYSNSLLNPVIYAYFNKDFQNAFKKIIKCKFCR
From the text: (§1) Binding of trans-^18F-mefway was evident in several 5HT1A receptor-rich regions, including hippocampus and cortex. Using cerebellum as a reference region, rat brain slices gave ratios of hippocampus/cerebellum=55 and cortex/cerebellum=17. Studies in transgenic mouse models of Alzheimer's disease show >90% loss in 5HT1a receptor binding (data not shown).

[8] = molecular target: T2, 5HT1A receptor; test: Rodent studies with trans-^18F-mefway, rat brain slices; format: binding; settings: cerebellum as reference region
From the text: as §1

SMILES: O=C(O)C1CCC(C[18F])CC1 (stereo not shown) [^18F-4-fluoromethylcyclohexane carboxylic acid]
- plateau of acid metabolite (aqueous fraction) in plasma ([1]; after 50 mins post-injection): 50-60%

SMILES: COc1ccccc1N1CCN(CCN(C(=O)C2CCC(C[18F])CC2)c2ccccn2)CC1 (stereo not shown) [^18F-mefway, N-{2-[4-(2-methoxyphenyl)piperazinyl]ethyl}-N-(2-pyridyl)-N-(4-^18F-fluoromethylcyclohexane)carboxamide]
- defluorination [2]: virtually no deflourination
- Lipophilicity (Log P) [3]: 2.62±0.06
- ^18F-mefway remaining unmetabolized in plasma ([1]; 3 hours post injection): approximately 30%
- raphe ratio (to cerebellum) ([4]; PET): 3.5
- time of peak of ratios, second group of regions ([4]; PET): around 80 mins
- ratio of hippocampus to cerebellum ([4]; PET, at pseudoequilibrium): exceeded 9
- time to reach uptake level in various regions ([4]; PET, brain uptake after i.v. administration): less than 2 mins
- hippocampus to cerebellum ratio, peak ([4]; PET, peak): 9.7
- uptake level in various brain regions ([4]; PET, reached in less than 2 mins): greater than 0.03 % injected dose/mL
- ratio to cerebellum, thalamus, striatum and raphe ([4]; PET, third group of regions): 2-3.5
- initial activity in the cerebellum still present ([4]; after 3 hrs): about 6%
- vital signs of the monkey ([4]; anesthetized Rhesus monkey during PET study): did not show any unusual deviations from baseline values
- hippocampus to cerebellum ratio at end of scan ([4]; end of the 3 hr scan): 8.4
- initial activity in the hippocampus still specifically bound ([4]; end of the 3 hr scan): approx 60%
- time of approach to pseudoequilibrium / plateau of ratio in receptor-rich regions ([4]; hippocampus (and cortical hot spot), PET, 130 MBq i.v.): around 80 mins

SMILES: COc1ccccc1N1CCN(CCN(C(=O)C2CCC(CF)CC2)c2ccccn2)CC1 (stereo not shown) [mefway, N-{2-[4-(2-methoxyphenyl)piperazinyl]ethyl}-N-(2-pyridyl)-N-(4-fluoromethylcyclo-hexane)-carboxamide]
- IC50 [5]: 32.1 nM and 25.7 nM

SMILES: NCCc1c[nH]c2ccc(O)cc12 [serotonin]
- displaced ^18F-mefway binding in cortex ([6]; cortex): > 70%
- displaced ^18F-mefway binding in hippocampus ([6]; hippocampus): > 85%

SMILES: COc1ccccc1N1CCN(CCN(C(=O)C2CCC(CF)CC2)c2ccccn2)CC1 (stereo not drawn) [trans-^18F-mefway]
- loss in 5HT1a receptor binding [7]: > 90%
- cortex/cerebellum ratio [8]: 17
- hippocampus/cerebellum ratio [8]: 55
